From patent US5416090A, “Method of treating inflammation” (priority 1992, dated 1995)
Like-named read-outs stand apart in the source and are kept apart here.

How the values were obtained:
[1] = tested on: 5-HT induced paw swelling; test: Serotonin (5-HT) induced acute paw inflammation; assay type: in vivo, rat (Lewis)
Description: (§1) In one such model, the acute paw inflammation model, rats were treated with test compounds one hour prior to plantar injection of a 50 μl volume of a phlogistic. Animals were sacrificed and paw weights were determined at a prescribed time interval following the plantar injections. When 1% carrageenan was used as the phlogistic, the time interval between injection and sacrifice was 3 hours. When serotonin (5-hydroxytryptamine (5-HT)) was used, as the phlogistic agent the time interval was one hour. When substance P was used, the time interval was 30 minutes. The acute paw inflammation model is described in more detail in Example 3.
(§2) Male Lewis rats (Charles River or Harlan Sprague Dawley) weighing 180 to 250 g were used in all acute inflammatory studies. Animals were maintained on a 12:12 hour light:dark cycle and were allowed ad lib access for food (Purina lab chow) and water. Experimental groups consisted of 5 or 6 rats.
Acute paw swelling was induced by the intraplantar injection of phlogistic agents into the left hind paw, with the uninjected right hind paw serving as the comparative control. One hour after dosing with test compound, 50 μl of serotonin (Sigma; 0.005 to 0.2 mg/ml in normal saline) or substance P (Sigma; 0.01 or 0.05 mg/ml in 10% thiorphan in normal saline) or carrageenan (Marine Colloidal or Sigma Type IV; 1% in normal saline) were injected under the skin of the left hind paw, while the animal was restrained in a plastic cone. Negative controls were given 50 μl intradermal injections of normal saline (serotonin or carrageenan assays) or 10% thiorphan (substance P assays) into the left hind paw. One hour following injection of serotonin, or 30 minutes following injection of substance P, or 180 minutes following injection of carrageenan, the animals were sacrificed by CO2 asphyxiation. The right and left hind paws were cut just proximal to the tibiotarsal joint and weighed. The difference in weight between an individual animal's left and right paws were used as an indicator of tissue swelling.
As indicated above, test compounds are administered as a one hour pretreatment. In one series of experiments, 24 hour and 48 hour drug pretreatment periods were used. Test compounds were dosed intraperitoneally as a suspension in 1% carboxymethylcellulose.

[2] = tested on: substance P induced paw swelling; test: Substance P induced acute paw inflammation; assay type: in vivo, rat (Lewis); details: pre-treated with 3 mg/kg
Description: as §1, §2
Acute paw swelling was induced by the intraplantar injection of phlogistic agents into the left hind paw, with the uninjected right hind paw serving as the comparative control. […]

[3] = tested on: dopamine receptor (DTH response); test: Reversal of DTH inhibition by dopamine receptor antagonists; assay type: in vivo, mouse; details: FIG. 9 Panels B, C legend; pretreated with domperidone or sulpiride
Description: Male Balb/c mice (Charles River) weighing 20 to 25 g were used in all DTH studies. When adrenalectomized studies were carried out, sham surgery and adrenalectomized mice were obtained from the vendor. Animals were maintained on a 12:12 hour light:dark cycle. Mice were allowed ad lib access for food (Purina lab chow) and water (normal saline for adrenalectomized animals).
A DTH response was assessed by measuring the degree of rear foot pad swelling induced by picryl chloride. On day 0, mice were sensitized with 100 μl of 5% picryl chloride (in ethanol), which was applied to a shaved abdomen. Negative control groups were shaved but not sensitized. On day 3, mice were anesthetized with methoxyflurane, and the baseline rear foot pad thickness was measured with a micrometer (Mitutoyo) in μ, and was recorded in duplicate. Fifty μl of picryl chloride was then applied to each pad with a pipet (Rainen) while the animal was unconscious. The negative controls also received picryl chloride at this point to control for primary irritancy. Twenty-four hours later, the mice were sacrificed by CO2 asphyxiation and each rear foot pad was again measured in duplicate, and any evidence of foot pad swelling was calculated. The mean rear foot swelling change of both pads for each animal from days 3 to 4 was used as the index of immune function in the DTH assay.
Unless otherwise stated all animals were given four subcutaneous doses of test compound just prior to picryl chloride sensitization on day 0, on day 1 and day 2, and just prior to picryl chloride challenge on day 3. In a few experiments, compounds were administered via oral or intraperitoneal routes. All drugs were delivered as suspensions in 1% carboxy-methylcellulose (also contained 0.8% NaCl, 1% polysorbate-80, 1.4% benzyl alcohol). Carboxymethyl-cellulose (1%) was used in control injections.

corticosterone = test: Serum/plasma corticosterone levels in mice; assay type: in vivo, mouse (Balb/C); details: FIG. 10 Panel A; 1 and 3 hr. following injection
Description: Dopamine agonists are known to elevate circulating glucocorticoid levels, via activation of the hypothalamo-pituitary-adrenal axis. […] Since glucocorticoids are potential endogenous anti-inflammatory substances, this action is one potential mechanism for the anti-inflammatory effect of the ergolines. However, in subsequent inflammation studies, the anti-inflammatory effects of D-1-isopropyl-6-n-propyl-8β-methylthiomethyl ergoline were retained in mice lacking an adrenal gland and therefore devoid of the increase in circulating corticosterone. (FIG. 10B)
(§3) Both Balb/C mice (male, approximately 20 g, Charles Rivers) and Lewis rats (male, approximately 200 g, Charles River or Harlan Sprague Dawley) were used in neuroendocrine studies. Animals were maintained on a 12:12 hour light:dark cycle and were allowed ad lib access for food (Purina lab chow) and water. Experimental groups consisted of 6 to 8 animals.
After dosing with test compounds, animals were sacrificed by decapitation at 1, 3, 8 or 24 hour intervals. Trunk blood was collected, allowed to clot and serum obtained after centrifugation (3000 rpm for 15 min.). Serum was aliquoted and stored at -70° C. for subsequent radioimmunoassays. Serum prolactin was determined by radioimmunoassay. Serum corticosterone levels were determined with a kit designed for such determinations and obtained from ICN.

serum prolactin [4] = test: Serum prolactin levels in rats; assay type: in vivo, rat (Lewis); details: FIG. 11, 0.3, 3 and 30 mg/kg, 1 hour post-treatment
Description: (§4) A further mechanistic study wherein rat serum prolactin levels were quantitated 1 hour post-treatment with varying doses of D-1-isopropyl-6-n-propyl-8β-methylthiomethyl ergoline is summarized in FIG. 11. […] A time course/dose response study of D-1-isopropyl-6-n-propyl-8β-methylthio-methyl ergoline effects on murine serum prolactin levels is presented in FIG. 12. […] There is however a disparity between the suppression of prolactin and anti-inflammatory activities of the ergolines with regard to the dose response profiles. Serum prolactin levels are much more sensitive to D-1-isopropyl-6-n-propyl-8β-methylthiomethyl ergoline (maximal suppression ~≤0.1 mg/kg) than are the anti-inflammatory effects 3-10 mg/kg, See FIG. 5).
as §3
(§5) After dosing with test compounds, animals were sacrificed by decapitation at 1, 3, 8 or 24 hour intervals. […] Serum prolactin was determined by radioimmunoassay. Serum corticosterone levels were determined with a kit designed for such determinations and obtained from ICN.

serum prolactin [5] = test: Serum prolactin levels in mice, time course; assay type: in vivo, mouse (Balb/C)
Description: as §4, §3, §5

[6] = tested on: graft versus host response (splenomegaly); assay type: in vivo, mouse (B6C3F1); details: FIG. 13, 10 daily doses
[7] = listed as D-1-isopropyl-6-n-propyl-8β-methylthiomethyl ergoline

SMILES: CCCN1C[C@H](CSC)C[C@@H]2c3cccc4c3c(cn4C(C)C)C[C@H]21 [Compound 1, D-1-isopropyl-6-n-propyl-8β-methylthiomethyl ergoline]
- reduction in paw swelling ([1]; 3 mg/kg dosed 24 hours prior to phlogistic challenge): significant reduction in paw swelling
- reduction in paw swelling ([1]; 3 mg/kg dosed 48 hours prior to phlogistic challenge): significant reduction in paw swelling
- effect on 5-HT induced paw swelling ([1]; FIG. 2): Inhibitory effect
- duration of anti-inflammatory effect ([1]; FIG. 3): longlasting
- inhibition of serotonin induced paw swelling ([1]; FIG. 3, serotonin 0.2 mg/kg, 1, 24 and 48 hour following a single injection): Inhibition
- minimal effective dose ([1]; Rattus norvegicus, ip, read-out: lowest stated dosage with a significant reduction in paw swelling): 0.1 mg/kg
- increase in paw weight after substance P ([2]; Substance P 0.01 mg/ml, untreated 174 ±18 mg): 38 ± 11 mg
- reduction of substance P induced increase in paw weight ([2]; p<0.05): 49%
- reversal of DTH inhibition by antagonist pretreatment [3]: reversal of inhibition of the DTH
- effect on plasma corticosterone (corticosterone): increase plasma cortiosterone
- serum prolactin levels (serum prolactin [4]; [7]): dramatically reduced serum prolactin levels
- serum prolactin levels (serum prolactin [4]; listed as compound 1): Suppression of serum prolactin levels
- duration of effect on serum prolactin (serum prolactin [5]; FIG. 12, single injection): particularly long lasting effects
- ED (maximal) (serum prolactin [5]; Mus musculus, compared with anti-inflammatory doses, read-out: dose for maximal suppression of serum prolactin): ≤ 0.1 mg/kg
- immunosuppressive activity / effect on GVH splenomegaly ([6]; listed as D-1-isopropyl-6-n-propyl-8β-methyl-thiomethyl ergoline): unaffected
- immunosuppressive activity / effect on GVH splenomegaly [6, 7]: no immunosuppressive activity
- immunosuppressive activity / effect on GVH splenomegaly ([6]; listed as compound 1): Lack of effect
